Measurements taken from patent US20240279220A1, “INDOLE COMPOUNDS AND METHODS OF USE” (Genzyme Corporation, priority 2021, published 2024).

Legend:
[1] = biological target: T1, CFTR (Homo sapiens, UniProt P13569, DEL508-508); test: TECC24 recording of CFTR-mediated transepithelial chloride transport in ΔF508 homozygous CF-HBE cells; type: cell-based; details: 10 μM test agent, 48 hours incubation, AUC of forskolin-stimulated IEQ divided by vehicle AUC, primary CF-HBE cells
T1 construct: Primary human bronchial epithelial cells from a ΔF508 homozygous CF donor; host or cells: primary human bronchial epithelial cells (CF-HBE), ΔF508 homozygous donor
Method: The effects of a test agent on CFTR-mediated transepithelial chloride transport was measured using TECC24 recording analysis. Test agents were solubilized in DMSO. Solubilized test agents were mixed with incubation medium containing DMEM/F12, Ultroser G (2%; Crescent Chemical, catalog #67042), Hyclone Fetal Clone II (2%; GE Healthcare, catalog #SH30066.02), bovine brain extract (0.25%; Lonza, catalog #CC-4098), insulin (2.5 μg/mL), IL-13 (10 ng/mL), hydrocortisone (20 nM), transferrin (2.5 μg/mL), triiodothyronine (500 nM), ethanolamine (250 nM), epinephrine (1.5 μM), phosphoethanolamine (250 nM), and retinoic acid (10 nM). Primary human bronchial epithelial cells from a ΔF508 homozygous CF donor (CF-HBE cells; from University of North Carolina Cystic Fibrosis Tissue Procurement Center), grown on Transwell HTS 24-well cell culture inserts (Costar, catalog #3378), were exposed to test agents or controls dissolved in incubation medium. The CF-HBE cells were cultured at 36.5° C. for 48 hours before TECC24 recordings were performed in the presence or absence of test agent, a positive control or vehicle (DMSO).
Following incubation, the transwell cell culture inserts containing the test agent or control-treated CF-HBE cells were loaded onto a TECC24 apparatus (TECC v7 or MTECC v2; EP Design) to record the transepithelial voltage (VT) and resistance (TEER) using 4 AgCl electrodes per well configured in current-clamp mode. The apical and basolateral bath solutions both contained (in mM) 140 NaCl, 5 KCl, 2 CaCl2, 1 MgCl2, 10 Hepes, and 10 glucose (adjusted to pH 7.4 with NaOH). To inhibit basal Na+ absorption, the ENaC inhibitor benzamil (10 μM) was added to the bath. Then, the adenylate cyclase activator, forskolin (10 μM), was added to the bath to activate CFTR. The forskolin-stimulated Cl— transport was halted by addition of CFTR inhibitor-172 (20 μM) to the bath at the end of the experiment to confirm specificity. VT and TEER recordings were digitally acquired at routine intervals using TECC or MTECC software (EP Design). VT and TEER were transformed into equivalent transpeithelial Cl— current (IEQ), and the Area Under the Curve (AUC) of the IEQ timecourse between forskolin and CFTR inhibitor-172 addition is generated using Excel (Microsoft). Efficacy is expressed as the ratio of the test agent AUC divided by vehicle AUC. EC50s based on AUC are generated using the non-linear regression log(agonist) vs. response function in Prism software (Graphpad) with HillSlope fixed=1.
If a test agent increased the AUC of the forskolin-stimulated IEQ relative to vehicle in CF-HBE cells, and this increase was inhibited by CFTR inhibitor-172, then the test agent was considered a CFTR corrector.

[2] = tested on: NBD1/3D; test: Aggregation analysis using differential static light scattering (DSLS), NBD1 thermal stability; type: binding, Human; details: ΔTagg versus DMSO control; compound at 100 μM
Method in brief: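 Thermal stabilisation reported as ΔTagg, i.e. aggregation temperature relative to averaged DMSO wells. Tagg came from the inflection of differential static light scattering imaged 25–70 °C while NBD1 (0.2 mg/ml, Tris pH 7.6 buffer containing ATP, MgCl2, DTT, glycerol) was ramped 1 °C/min.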

T1 sequence (P13569 with tags, fused parts or gaps DEL508-508): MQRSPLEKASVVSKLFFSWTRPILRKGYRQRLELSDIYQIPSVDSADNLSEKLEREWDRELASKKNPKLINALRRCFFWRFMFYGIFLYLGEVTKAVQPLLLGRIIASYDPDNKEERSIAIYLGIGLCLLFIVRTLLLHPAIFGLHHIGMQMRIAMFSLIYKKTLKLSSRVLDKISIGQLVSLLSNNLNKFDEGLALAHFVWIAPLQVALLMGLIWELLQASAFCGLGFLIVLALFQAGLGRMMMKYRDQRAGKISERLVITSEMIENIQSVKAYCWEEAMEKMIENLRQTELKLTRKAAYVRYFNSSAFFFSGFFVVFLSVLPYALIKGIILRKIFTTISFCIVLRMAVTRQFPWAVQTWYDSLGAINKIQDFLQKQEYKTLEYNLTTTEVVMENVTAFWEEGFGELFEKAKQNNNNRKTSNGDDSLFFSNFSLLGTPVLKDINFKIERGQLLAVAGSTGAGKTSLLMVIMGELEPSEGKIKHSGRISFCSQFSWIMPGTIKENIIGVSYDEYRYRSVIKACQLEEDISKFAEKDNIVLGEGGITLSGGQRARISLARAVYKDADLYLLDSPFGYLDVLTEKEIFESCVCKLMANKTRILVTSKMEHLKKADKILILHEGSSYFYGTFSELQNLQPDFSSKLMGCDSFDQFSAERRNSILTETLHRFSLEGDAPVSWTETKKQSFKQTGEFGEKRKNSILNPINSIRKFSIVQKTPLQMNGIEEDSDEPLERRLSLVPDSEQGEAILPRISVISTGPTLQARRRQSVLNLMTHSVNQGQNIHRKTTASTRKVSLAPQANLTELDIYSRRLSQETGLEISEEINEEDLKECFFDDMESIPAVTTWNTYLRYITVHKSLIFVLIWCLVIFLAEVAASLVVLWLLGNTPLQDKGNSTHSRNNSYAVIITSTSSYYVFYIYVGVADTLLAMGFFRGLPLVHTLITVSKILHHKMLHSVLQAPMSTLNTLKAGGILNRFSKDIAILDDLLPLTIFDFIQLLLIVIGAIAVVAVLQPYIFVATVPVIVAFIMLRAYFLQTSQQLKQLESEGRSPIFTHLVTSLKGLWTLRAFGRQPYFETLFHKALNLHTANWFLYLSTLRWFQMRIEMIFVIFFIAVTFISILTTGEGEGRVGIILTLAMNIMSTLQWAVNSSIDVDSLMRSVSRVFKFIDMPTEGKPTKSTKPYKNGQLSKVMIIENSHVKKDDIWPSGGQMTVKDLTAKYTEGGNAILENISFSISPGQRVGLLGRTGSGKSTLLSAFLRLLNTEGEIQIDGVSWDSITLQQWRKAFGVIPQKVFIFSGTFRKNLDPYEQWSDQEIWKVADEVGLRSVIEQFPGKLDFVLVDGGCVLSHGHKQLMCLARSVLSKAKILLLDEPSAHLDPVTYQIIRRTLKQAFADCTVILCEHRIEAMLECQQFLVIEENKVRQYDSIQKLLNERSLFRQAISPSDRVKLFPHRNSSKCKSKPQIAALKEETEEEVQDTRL

TECC24 @ 10 μM over DMSO (AUC fold over DMSO) [1]	Structure (SMILES)	DSLS NBD1/3D Human Stability delta-T (° C.) @ 100 (μM) [2]
A (“A” refers to AUC @10 uM >= 12)	CC(c1cnc(-c2cc(Oc3c(F)cc4[nH]ccc4c3CC(F)(F)F)ccc2F)[nH]1)c1cccc(CCC(=O)O)c1F (single isomer, unassigned) [Example 128B, 3-(2-fluoro-3-(1-(2-(2-fluoro-5-((6-fluoro-4-(2,2,2-trifluoroethyl)-1H-indol-5-yl)oxy)phenyl)-1H-imidazol-5-yl)ethyl)phenyl)propanoic acid]	A (A: T ≥ 10° C.)
A (“A” refers to AUC @10 uM >= 12)	CC(c1c[nH]c(-c2cc(Oc3c(F)cc4[nH]ccc4c3CC(F)F)ccc2F)n1)c1cccc(CCC(=O)O)c1F (single isomer, unassigned) [Example 129A, 3-(3-(1-(2-(5-((4-(2,2-difluoroethyl)-6-fluoro-1H-indol-5-yl)oxy)-2-fluorophenyl)-1H-imidazol-4-yl)ethyl)-2-fluorophenyl)propanoic acid]	A (A: T ≥ 10° C.)
A (“A” refers to AUC @10 uM >= 12)	CC(C)OCCOCCC(c1cnc(-c2cc(Oc3c(F)cc4[nH]ccc4c3F)ccc2F)[nH]1)c1cccc(CCC(=O)O)c1F (single isomer, unassigned) [Example 130B, 3-(3-(1-(2-(5-((4,6-difluoro-1H-indol-5-yl)oxy)-2-fluorophenyl)-1H-imidazol-5-yl)-3-(2-isopropoxyethoxy)propyl)-2-fluorophenyl)propanoic acid]	A (A: T ≥ 10° C.)
A (“A” refers to AUC @10 uM >= 12)	CC(c1cnc(-c2cc(Oc3c(F)cc4[nH]ccc4c3F)ccc2F)[nH]1)c1cccc(CC(=O)O)c1F (single isomer, unassigned) [Example 131A, 2-(3-(1-(2-(5-((4,6-difluoro-1H-indol-5-yl)oxy)-2-fluorophenyl)-1H-imidazol-5-yl)ethyl)-2-fluorophenyl)acetic acid]	A (A: T ≥ 10° C.)
A (“A” refers to AUC @10 uM >= 12)	CC(c1cnc(-c2cc(Oc3c(F)cc4[nH]ccc4c3F)ccc2F)[nH]1)c1cc(F)cc(CCC(=O)O)c1F (single isomer, unassigned) [Example 132B, 3-(3-(1-(2-(5-((4,6-difluoro-1H-indol-5-yl)oxy)-2-fluorophenyl)-1H-imidazol-5-yl)ethyl)-2,5-difluorophenyl)propanoic acid]	A (A: T ≥ 10° C.)
C (“C” refers to AUC @ 10 uM <= 4)	CC(c1cnc(-c2cc(Oc3c(F)cc4[nH]ccc4c3CP(C)(C)=O)ccc2F)[nH]1)c1cccc(CCC(=O)O)c1F (single isomer, unassigned) [Example 133B, 3-(3-(1-(2-(5-((4-((dimethylphosphoryl)methyl)-6-fluoro-1H-indol-5-yl)oxy)-2-fluorophenyl)-1H-imidazol-5-yl)ethyl)-2-fluorophenyl)propanoic acid]	A (A: T ≥ 10° C.)
A (“A” refers to AUC @10 uM >= 12)	CC(c1cnc(-c2cc(Oc3c(F)cc4[nH]ccc4c3CN3CCCS3(=O)=O)ccc2F)[nH]1)c1cccc(CCC(=O)O)c1F (single isomer, unassigned) [Example 134B, 3-(3-(1-(2-(5-((4-((1,1-dioxidoisothiazolidin-2-yl)methyl)-6-fluoro-1H-indol-5-yl)oxy)-2-fluorophenyl)-1H-imidazol-5-yl)ethyl)-2-fluorophenyl)propanoic acid]	A (A: T ≥ 10° C.)
C (“C” refers to AUC @ 10 uM <= 4)	CC(c1cnc(-c2cc(Oc3c(F)cc4[nH]ccc4c3CCP(C)(C)=O)ccc2F)[nH]1)c1cccc(CCC(=O)O)c1F (single isomer, unassigned) [Example 135A, 3-(3-(1-(2-(5-((4-(2-(dimethylphosphoryl)ethyl)-6-fluoro-1H-indol-5-yl)oxy)-2-fluorophenyl)-1H-imidazol-5-yl)ethyl)-2-fluorophenyl)propanoic acid]	A (A: T ≥ 10° C.)
A (“A” refers to AUC @10 uM >= 12)	CC(c1c[nH]c(-c2cc(Oc3c(F)cc4[nH]ccc4c3S(C)(=N)=O)ccc2F)n1)c1cccc(CCC(=O)O)c1F (single isomer, unassigned) [Example 136C, 3-(2-fluoro-3-(1-(2-(2-fluoro-5-((6-fluoro-4-(S-methylsulfonimidoyl)-1H-indol-5-yl)oxy)phenyl)-1H-imidazol-4-yl)ethyl)phenyl)propanoic acid]	A (A: T ≥ 10° C.)
A (“A” refers to AUC @10 uM >= 12)	CC(Cc1cccc(C(C)c2cnc(-c3cc(Oc4c(F)cc5[nH]ccc5c4F)ccc3F)[nH]2)c1F)C(=O)O (single isomer, unassigned) [Example 137D, 3-(3-(1-(2-(5-((4,6-difluoro-1H-indol-5-yl)oxy)-2-fluorophenyl)-1H-imidazol-5-yl)ethyl)-2-fluorophenyl)-2-methylpropanoic acid]	A (A: T ≥ 10° C.)
A (“A” refers to AUC @10 uM >= 12)	Cc1nc(-c2cc(Oc3c(F)cc4[nH]ccc4c3F)ccc2F)[nH]c1C(O)c1cccc(CCC(=O)O)c1F (single isomer, unassigned) [Example 180, 3-(3-((2-(5-((4,6-difluoro-1H-indol-5-yl)oxy)-2-fluorophenyl)-4-methyl-1H-imidazol-5-yl)(hydroxy)methyl)-2-fluorophenyl)propanoic acid]	A (A: T ≥ 10° C.)
A (“A” refers to AUC @10 uM >= 12)	CC(c1nnc(-c2cc(Oc3c(F)cc4[nH]ccc4c3F)ccc2F)[nH]1)c1cccc(CCC(=O)O)c1F (single isomer, unassigned) [Example 252A, 3-(3-(1-(5-(5-((4,6-difluoro-1H-indol-5-yl)oxy)-2-fluorophenyl)-4H-1,2,4-triazol-3-yl)ethyl)-2-fluorophenyl)propanoic acid]	B (B: 5-10° C.)
A (“A” refers to AUC @10 uM >= 12)	CC(c1cn(C)c(-c2cc(Oc3c(F)cc4[nH]ccc4c3F)ccc2F)n1)c1cccc(CCC(=O)O)c1F (single isomer, unassigned) [Example 278B, 3-(3-(1-(2-(5-((4,6-difluoro-1H-indol-5-yl)oxy)-2-fluorophenyl)-1-methyl-1H-imidazol-4-yl)ethyl)-2-fluorophenyl)propanoic acid]	B (B: 5-10° C.)

Structure (SMILES)	TECC24 @ 10 μM over DMSO (AUC fold over DMSO) [1]	DSLS NBD1/3D Human Stability delta-T (° C.) @ 100 (μM) [2]
CC(c1c[nH]c(-c2cc(Oc3c(F)cc4[nH]ccc4c3S(C)(=O)=O)ccc2F)n1)c1cccc(CC(=O)O)c1F (single isomer, unassigned) [Example 84, 2-(2-fluoro-3-(1-(2-(2-fluoro-5-((6-fluoro-4-(methylsulfonyl)-1H-indol-5-yl)oxy)phenyl)-1H-imidazol-4-yl)ethyl)phenyl)acetic acid]	B (“B” refers to AUC @10 uM between 4-12)	A (A: T ≥ 10° C.)
Cc1c(Oc2ccc(F)c(-c3ncc([C@H](C)c4cccc([C@@H]5C[C@H]5C(=O)O)c4F)[nH]3)c2)c(F)cc2[nH]ccc12 (single isomer, unassigned) [Example 139F, trans-2-(2-fluoro-3-(1-(2-(2-fluoro-5-((6-fluoro-4-methyl-1H-indol-5-yl)oxy)phenyl)-1H-imidazol-5-yl)ethyl)phenyl)cyclopropane-1-carboxylic acid]	B (“B” refers to AUC @10 uM between 4-12)	A (A: T ≥ 10° C.)
